The text below walks through data of patent US20240002405A1, “ANTIMICROBIAL COMPOUNDS, SYNTHESIS METHODS, AND USES THEREOF” (Ankh Life Sciences Limited, priority 2022, published 2024).

Values after ≈ are worked out from the molar mass of the structure shown. Values joined by “and” are separate entries in the source; they are usually repeats but may differ in a detail not shown here. Equal values may be shown once. Read-outs that look alike come from different tables or passages of the source. Where only a bound is given, the exact number is not on record here.

The term MIC denotes the lowest concentration that inhibits growth of the organism. In general, MBC refers to the smallest concentration meeting the test's criterion for killing.

One data set relates to SARS-CoV-2. As to the kind of experiment: RT-PCR quantitation of viral copy number. It is filed as cell-based. As to conditions: 120 hours after infection.
The test system of data set [1] is SARS-CoV-2 isolate USA-WA1/2020 in Vero-E6 cells. As to the kind of experiment: Virus plaque formation assay. It is filed as cell-based.
The subject of a further data set is VREF (ATCC 51299). As to the kind of experiment: Minimum bactericidal concentration (MBC) assay, VREF. It is filed as cell-based, Enterococcus faecalis. Particulars: VREF; for MBC: Enterococcus faecalis, ATCC51299, read-out: MBC (bactericidal activity). On the procedure: (§1) (f) Determination of MBC: MBC was determined by sampling all the macroscopically clear wells. Before sampling, the wells were gently mixed by flushing them with a pipette, and a 5 μL was removed and placed on an agar plate suitable for the growth of the microbe being tested. The agar plate was divided into three parts to test three trials of a single concentration. The sample was allowed to be absorbed into the agar for ˜30 minutes. The plates were then incubated for 24 hours at 37° C. After incubation, the plates were examined to determine the compound concentration at which 99.9% killing was achieved.

For data set [2], the system named is E. faecalis (ATCC 29212). Nature of the data set: Broth microdilution MIC assay, E. faecalis. As to conditions: Enterococcus faecalis, ATCC29212, read-out: MIC (bacterial growth inhibition). Background: Broth dilution looks for growth in wells or tubes with falling amounts of substance.
Procedure: (§2) The concentration of compound required to visibly stop the growth of bacteria is known as minimum inhibitory concentration (MIC). Different concentrations of the compounds are tested for the exact same number of bacteria, and the growth is monitored with time.
(§3) Bacterial strains were purchased from the American Type Culture Collection (ATCC) for the studies.
(§4) The MIC assay procedure follows the guidelines set by the Clinical Laboratory Sciences Institute (CLSI).
(§5) To do this, bacteria were transferred from pure agar culture, aseptically transferred in 5 mL of Cation-Adjusted Mueller-Hinton Broth (CAMHB). The broth was incubated overnight at 35° C. to stationary phase to achieve a turbidity suspension. A spectrophotometer (SpectraMax ID5) was used to measure the turbidity (optical density—OD at 625 nm). The inoculum was prepared by adjusting the turbidity of overnight culture to 0.5 McFarland, which is equal to the defined number of bacteria 1×10^8 CFU/ml.
(§6) (b) Compound Dilution: All compounds used in the study were dissolved in sterile ultra-pure DMSO (VWR International, PA, USA) and maintained at −80° C. Stock solution of the compound was freshly prepared the day of use or is prepared from a frozen stock solution stored at −80° C. […] The compound solution was prepared at a desired concentration in DMSO, and 1/10 dilution was performed in a sterile CAMHB medium. This 10-fold dilution of stock solution was used for a 2-fold serial dilution in a 96-well plate to observe an inhibitory effect of the compound on bacterial growth. 100 μL of diluted drug solution was transferred to a first column of the 96-well plate. 50 μL of sterile CAMHB was transferred to each well from well 2 to well 12. Next, 50 μL was removed from well 1 and added to well 2. The contents from well 2 were mixed by pipetting up and down. Next, 50 µL were removed from well 2 and added to well 3. This process was continued till well 11 is reached. 50 μL was discarded from the well 11. Each compound concentration was tested in triplicate.
(§7) (c) Inoculation of 96-well plate: The same number of bacteria (1×10^5 CFU/mL) were prepared after 150-fold dilution of 0.5 McFarland inoculum and used to add in the wells of different drug concentrations. 50 μL of working inoculum was carefully added to each well, except the sterility well 12. Mixing is performed by gently flushing the inoculum in and out of the pipette tip four or five times, avoiding splashing and bubble formation.
(§8) (d) Incubation: Plates were incubated at 35° C. for 24 hours without shaking or agitation.
(§9) (e) Determination of MIC: After 18-24 hours of incubation, the plates were read for MIC. SpectraMax iD5 microplate reader was used to measure turbidity at different time points. Turbidity (OD) increases as the bacteria grow over time.
Data set [3] has as its system MRSA: S. aureus resistant to methicillin and oxacillin (ATCC 43300). Nature of the data set: Broth microdilution MIC assay, MRSA. As to conditions: Staphylococcus aureus, ATCC43300|MRSA, read-out: MIC (bacterial growth inhibition).
Procedure: as §2, §3, §4, §5, §6, §7, §8, §9
Another data set concerns Vero-E6 cells. As to the kind of experiment: CytoTox 96 Nonradioactive Cytotoxicity Assay (LDH release). A general note: LDH in the medium is a marker of cell lysis.
The subject of data set [4] is VREF: E. faecalis resistant to vancomycin (ATCC 51299). As to the kind of experiment: Broth microdilution MIC assay, VREF. Particulars: Enterococcus faecalis.
Procedure: as §2, §3, §4, §5, §6, §7, §8, §9
Data set [5] deals with S. aureus (ATCC 29213). As to the kind of experiment: Broth microdilution MIC assay, S. aureus. Particulars: for MIC: Staphylococcus aureus, ATCC29213, read-out: MIC (bacterial growth inhibition), S. aureus; for higher efficacy than harmaline: antibacterial efficacy versus harmaline; for higher antibacterial activity than harmaline dimer without a substitution (GZ440/6): versus GZ440/6.
Procedure: as §2, §3, §4, §5, §6, §7, §8, §9

The next data set deals with MRSA (ATCC 43300). As to the kind of experiment: Minimum bactericidal concentration (MBC) assay, MRSA. As to conditions: Staphylococcus aureus, MRSA. It is filed as cell-based. On the procedure: as §1
Data set [6] concerns gram positive and negative bacteria. Nature of the data set: Antibacterial testing against gram positive and negative bacteria. It is filed as cell-based. Here is the method: In addition to the harmaline dimers compounds, other bicyclic indole compounds (203, 233, 476/6 and 504/6,) were also tested against gram positive and negative bacteria. Particularly, the indole ethyl urea molecules 203, 233 and the tryptamide dimer molecules 476/6, 504/6, as shown below, were tested.

The next data set can be described thus: Solubility in DMSO. It is filed as physicochemical.
In data set [7] the test system is Candida albicans (ATCC 18804). As to the kind of experiment: Antifungal broth microdilution MIC assay. It counts as cell-based. As to conditions: Candida albicans, ATCC18804, C. albicans, read-out: MIC (antifungal growth inhibition). On the procedure: Synthesized compounds were tested for antifungal activity towards the fungus strain, Candida albicans. […] Different concentrations of the compounds were tested for the exact same number of fungi, and the growth is monitored with time. MIC was determined by using the broth microdilution assay. Fungus strain, C. albicans was purchased from ATCC (ID: 18804) for the studies. […] This solution was used to make a working solution by preparing a 1:50 dilution, followed by a 1:20 dilution, with RPMI 1640 medium to obtain 2× test inoculum. The 2× inoculum is diluted 1:1 to achieve the final inoculum size (0.5×10^3 to 2.5×10^3 cells per mL). RPMI 1640 medium was used with L-glutamine and phenol red as a pH indicator but without bicarbonate and a glucose concentration of 0.2%. […] All plates were then read visually under normal laboratory lighting using a mirror viewer. Wells were scored for the growth compared to that of the drug free control well. Plates were read at 530 nm with subtraction of the blank from the reading of each well. Turbidity (OD) increases as the fungus grows over time.

In the next data set the test system is E. coli (ATCC 25922). Nature of the data set: Broth microdilution MIC assay, E. coli. Particulars: E. coli.
Data set [8] deals with S. aureus (ATCC 29213). Nature of the data set: Minimum bactericidal concentration (MBC) assay, S. aureus. It is filed as cell-based. As to conditions: Staphylococcus aureus, S. aureus. On the procedure: as §1
Data set [9] relates to E. faecalis (ATCC 29212). As to the kind of experiment: Minimum bactericidal concentration (MBC) assay, E. faecalis. It is filed as cell-based, Enterococcus faecalis. As to conditions: for MBC: Enterococcus faecalis, ATCC29212. On the procedure: as §1
The subject of data set [10] is engineered Salmonella typhimurium strain (umuC, β-galactosidase). Particulars: without S9 activation.
Source text: The EBPI UMU-ChromoTest™ assay is used for the detection and quantification of genotoxicity of compounds and is based on the International Organization for Standardization protocol ISO 13829. The UMU-ChromoTest™ assay utilizes a native bacterial mechanism for the detection of compound genotoxicity. The bacteria used for the assay is an engineered Salmonella typhimurium strain developed to include a gene coding for the β-galactosidase (β-gal) enzyme tethered to the umuC, a damage response gene. DNA damage activates the SOS system to transcribe β-gal proportional to the level of SOS induction. The UMU-ChromoTest™ bacterial strain has modifications to increase sensitivity to genotoxins with (a) increased sensitivity for even limited damage, (b) modified outer membrane of the cell to increase permeability to exogenous materials, and (c) production of a color change on addition to chromogenic substrate (ONPG), which is a quantitative measure of genotoxic damage to bacterial DNA.
Rehydration of Dried Bacteria and Culture Growth: The bacteria were rehydrated and incubated at 37° C. for 16-18 hours. OD600 of the overnight culture should be 0.5 or at least above 0.1 at 600 nm.
Sample Preparation and Plate Setup: The dimer compounds were dissolved in DMSO. All dilution and controls were made in the solvent of 10% DMSO in sterile 0.85% saline. The pH of the compounds was adjusted to 7.0±0.2 before incubation with bacteria to facilitate bacterial growth and prevent degradation of ONPG later in the assay. The solutions of hydrochloric acid and sodium hydroxide were used to adjust pH with minimal addition volumes to prevent excessive sample dilution. Six samples were run at 4 dilutions at a time.
Preliminary Dilution of Bacteria: The overnight bacterial culture was diluted to 50% by performing a reinoculation with 5 mL of overnight growth and 5 mL of fresh Growth media. The reinoculated bacteria was inoculated for 1.5 hours at 37° C. The OD600 should be approximately 80% of the reading from overnight growth or slightly higher.
Preparation of Plate A: Distilled water (180 μL) was added to all wells, except for rows A to F, columns 1 to 3 and row H, columns 1 to 6. Rows A to F are used for 6 compounds per plate. The test compounds (360 μL) were added to the first three wells (three replicates) of the same microplate, such that wells 1-3 were a triplicate set of the highest concertation of test compound (360 μL). Wells 4-12 each contained 180 μL of distilled water. For dilution, half of the contents (180 μL) from wells 1-3 was transferred to wells 4-6 which makes a second triplicate set. For a third dilution, half of the contents from wells 4-6 were transferred to 7-9, and for the fourth triplicate set, half of the contents from wells 7-9 was transferred to 10-12. […]
Data set [11] has as its system P. aeruginosa (ATCC 10145). As to the kind of experiment: Broth microdilution MIC assay, P. aeruginosa.
Procedure: as §2, §3, §4, §5
(b) Compound Dilution: All compounds used in the study were dissolved in sterile ultra-pure DMSO (VWR International, PA, USA) and maintained at −80° C. […]
(e) Determination of MIC: After 18-24 hours of incubation, the plates were read for MIC. SpectraMax iD5 microplate reader was used to measure turbidity at different time points. […]
Where [12] appears, read: ATCC51299, 24 h, read-out: MIC (bacterial growth inhibition).
Setting [13] is: ATCC51299, 48 h, read-out: MIC (bacterial growth inhibition).
The mark [14] stands for this setting: ATCC51299, read-out: MIC (bacterial growth inhibition).
The mark [15] stands for this setting: ATCC29213, 24 h, read-out: MBC (kills bacteria).
The mark [16] stands for this setting: ATCC29213, read-out: MBC (bactericidal activity).

Procedure for E. coli (ATCC 25922): as §2, §3, §4, §5, §6, §7, §8, §9

As for `COc1ccc2c3c([nH]c2c1)C(CCCC1=NCCc2c1[nH]c1cc(OC)ccc21)=NCC3` [GZ440/6], the “viral load (viral RNA levels)” value is “decreased viral load” with SARS-CoV-2 (higher concentrations (20 and 40 μM)); “not in lower concentrations” in the data set on SARS-CoV-2 (lower concentrations). In addition, the “inhibition of plaque formation” value was “negligible inhibition” in data set [1] (2.0, 5.0 and 10.0 μM, CoV-2 in Vero-E6 cells at 120 h after infection); “inhibition of plaque formation was significant” in [1] (at 20 μM and above). In addition, the “MBC (bactericidal activity)” value in the data set with VREF (ATCC 51299) is given as “No bactericidal action was observed”. Also, the minimal inhibitory concentration (MIC) in the data set with E. faecalis (ATCC 29212) [2] is 88 µg/mL and 200 µM; in data set [3] (24 h), 27.5 µg/mL (≈ 62.5 µM); in data set [3] (90 h) it was 55 µg/mL (≈ 125 µM); in data set [4] (setting [12]), 55 µg/mL (≈ 125 µM); in [4] (setting [13]) it was 110 µg/mL (≈ 250 µM); in [4] (setting [14]), more than 110 µg/mL. The minimum inhibitory concentration (MIC) came out at 200 µM in the data set with S. aureus (ATCC 29213) [5] and 88 µg/mL in the data set with S. aureus (ATCC 29213) [5] (time not given). The cytotoxicity entry is on record as “no significant cytotoxicity” with Vero-E6 cells (20 μM and 40 μM); “negligible cytotoxicity” in the data set with Vero-E6 cells (Vero-E6 cells, 2.0 μM, 5.0 μM and 10.0 μM). Besides, the minimum bactericidal concentration (MBC) in the data set on MRSA (ATCC 43300) (read-out: MBC) turned out to be 110 µg/mL; in the data set with MRSA (ATCC 43300) (read-out: MRSA-MBC), 250 µM. The bacteriostatic/bactericidal activity result in [6] is “show bacteriostatic and bactericidal activity”.

Consider `COc1ccc2c3c([nH]c2c1)C(CC(CC1=NCCc2c1[nH]c1cc(OC)ccc21)c1cncs1)=NCC3` [GK524], for which the MIC in [3] was determined as 16.4 µg/mL (≈ 31.2 µM); in data set [7] (after 24 hours of incubation) it was 12.2 µg/mL (≈ 23.4 µM); in [7] (after 48 hours of incubation), 25 µg/mL (≈ 47.7 µM); with S. aureus (ATCC 29213) [5] (time not given), 32.7 µg/mL. Besides, the “solubility in DMSO (time to dissolve)” value in “Solubility in DMSO” is reported as “instantly”. Also, the “MIC (bacterial growth inhibition)” value in the data set with E. coli (ATCC 25922) was “No bacteriostatic or bactericidal activities were observed”. Besides, in the data set on S. aureus (ATCC 29213) [5], the “higher efficacy than harmaline” value is recorded as approximately 15 fold. In addition, the “higher antibacterial activity than harmaline dimer without a substitution (GZ440/6)” value in the data set on S. aureus (ATCC 29213) [5] is 1.75 fold. The MBC amounted to 32.7 µg/mL in the data set with MRSA (ATCC 43300) (read-out: MBC), 62.5 µM in the data set with MRSA (ATCC 43300) (read-out: MRSA-MBC), 65.5 µg/mL in the data set on S. aureus (ATCC 29213) [8] (setting [15]) and 125 µM in the data set with S. aureus (ATCC 29213) [8] (setting [16]). Also, the bacteriostatic/bactericidal activity entry in data set [6] was “show bacteriostatic and bactericidal activity”.

For `COc1ccc2c3c([nH]c2c1)C(CC(CC1=NCCc2c1[nH]c1cc(OC)ccc21)c1c[nH]cn1)=NCC3` [1,1′-(2-(1H-imidazol-4-yl)propane-1,3-diyl)bis(7-methoxy-4,9-dihydro-3Hpyrido[3,4-b]indole)], the “MBC (kills bacteria)” value in the data set with E. faecalis (ATCC 29212) [9] was 101.2 µg/mL (≈ 200 µM). The minimal bactericidal concentration (MBC) in the data set with E. faecalis (ATCC 29212) [9] is 200 µM (≈ 101 µg/mL); in the data set with VREF (ATCC 51299), more than 127 µg/mL; in the data set on MRSA (ATCC 43300) (read-out: MBC), 63.3 µg/mL; with MRSA (ATCC 43300) (read-out: MRSA-MBC) it was 125 µM; with S. aureus (ATCC 29213) [8] (setting [15]) it was 101 µg/mL; in the data set with S. aureus (ATCC 29213) [8] (setting [16]), 200 µM. The “genotoxic concentration (not genotoxic up to / toxicity above)” value in data set [10] is “above 85 μM”. The MIC in the data set on E. faecalis (ATCC 29212) [2] was 50.6 µg/mL (≈ 99.9 µM); in [3] (24 h), 15.8 µg/mL (≈ 31.2 µM); in data set [3] (90 h), 31.7 µg/mL (≈ 62.5 µM); in data set [4] (setting [12]), 63.3 µg/mL (≈ 125 µM); in data set [4] (setting [13]) it was 127 µg/mL (≈ 250 µM); in [4] (setting [14]) it was more than 127 µg/mL. In the data set with S. aureus (ATCC 29213) [5] (time not given), the MIC came out at 50.6 µg/mL. The “solubility in DMSO (time to dissolve)” value in “Solubility in DMSO” fell in the range of 30 to 40 min. The “MIC (bacterial growth inhibition)” value (against E. coli (ATCC 25922); in data set [11]) was “no inhibition was observed” in each case. For the same compound, the “higher efficacy than harmaline” value in the data set with S. aureus (ATCC 29213) [5] is approximately 15 fold. For the same compound, the “higher antibacterial activity than harmaline dimer without a substitution (GZ440/6)” value with S. aureus (ATCC 29213) [5] was 1.75 fold. Besides, the bacteriostatic/bactericidal activity result in data set [6] was “show bacteriostatic and bactericidal activity”.

Regarding `COc1ccc2c3c([nH]c2c1)C(CC(CC1=NCCc2c1[nH]c1cc(OC)ccc21)c1cccnc1)=NCC3` [GK517.3, 1,1′-(2-(pyridin-3-yl)propane-1,3-diyl)bis(7-methoxy-4,9-dihydro-3H-pyrido[3,4-b]indole)], in the data set on E. faecalis (ATCC 29212) [9], the “MBC (kills bacteria)” value is 103.5 µg/mL (≈ 200 µM). Besides, the MBC in the data set on E. faecalis (ATCC 29212) [9] was found to be 200 µM (≈ 104 µg/mL); with VREF (ATCC 51299), 64.7 µg/mL (≈ 125 µM); in the data set on MRSA (ATCC 43300) (read-out: MBC) it was 32.4 µg/mL; with MRSA (ATCC 43300) (read-out: MRSA-MBC) it was 62.5 µM; in the data set with S. aureus (ATCC 29213) [8] (setting [15]), 104 µg/mL; in the data set on S. aureus (ATCC 29213) [8] (setting [16]), 200 µM. Also, the MIC in the data set on E. faecalis (ATCC 29212) [2] amounted to 51.7 µg/mL (≈ 99.9 µM); in data set [3] (24 h), 8 µg/mL (≈ 15.5 µM); in data set [3] (90 h), 16.2 µg/mL (≈ 31.3 µM); in data set [4] (setting [12]), 32.4 µg/mL (≈ 62.5 µM); in data set [4] (ATCC51299, 90 h, read-out: MIC (bacterial growth inhibition)) it was 64.7 µg/mL (≈ 125 µM); in the data set with S. aureus (ATCC 29213) [5] (time not given) it was 51.7 µg/mL. Moreover, the “solubility in DMSO (time to dissolve)” value in “Solubility in DMSO” is 10 to 15 min. Moreover, the “MIC (bacterial growth inhibition)” value (against E. coli (ATCC 25922); in [11]) was “no inhibition was observed” in each case. The “higher efficacy than harmaline” value in the data set with S. aureus (ATCC 29213) [5] is recorded as approximately 15 fold. Besides, in the data set with S. aureus (ATCC 29213) [5], the “higher antibacterial activity than harmaline dimer without a substitution (GZ440/6)” value is 1.75 fold. Moreover, the bacteriostatic/bactericidal activity entry in [6] is “show bacteriostatic and bactericidal activity”.
